Results published in patent publication US20260335263A1, “USE OF TROPIC ACID AND DERIVATIVE THEREOF IN PREPARATION OF DRUG FOR TREATING PSORIASIS” (GUANGDONG PHARMACEUTICAL UNIVERSITY, priority 2022, published 2026).

How the values were obtained:
[1] = Solubility observed in structural identification; format: physicochemical
[2] = system: Psoriasis in Mice Induced by Imiquimod; test: Histomorphological observation (PASI scoring and day 7 photographs of back skin lesions) of psoriasis in mice induced by imiquimod; format: in vivo, male Balb/c mice; settings: for skin lesion scores (overall score), high-dose: vs high-dose tropic acid, compound III P<0.01, compound IV P<0.05; for skin erythema score, low-dose / skin lesion scores (overall score), low-dose: low-dose 3 mg/kg·d by gavage; for skin erythema score, low-dose: compared with low-dose tropic acid, P<0.01; for skin lesion scores (overall score), low-dose: vs low-dose tropic acid; for therapeutic effect on back skin injury induced by imiquimod: overall conclusion, mouse model of psoriasis; for therapeutic effects compared with tropic acid: summary statement
Description: 110 male Balb/c mice (8-10 weeks, 20-25 g each) were anesthetized by intraperitoneal injection of 10% chloral hydrate, and approximately 2 cm×4 cm of back hair was shaved off. The mice were randomly divided into 11 groups, with 10 mice in each group, including a blank control group, a model group, a positive drug group, a high-dose tropic acid group (A), a low-dose tropic acid group (B), a high-dose 4-hydroxy-α-(hydroxymethyl)phenylacetic acid group (C), a low-dose 4-hydroxy-α-(hydroxymethyl)phenylacetic acid group (D), a high-dose 3,4-dihydroxy-α-(hydroxymethyl)phenylacetic acid group (E), a low-dose 3,4-dihydroxy-α-(hydroxymethyl)phenylacetic acid group (F), a high-dose 3,4,5-trihydroxy-α-(hydroxymethyl)phenylacetic acid group (G), and a low-dose 3,4,5-trihydroxy-α-(hydroxymethyl)phenylacetic acid group (H) of. Except for the blank control group, which received no treatment, all other groups were treated with 50 mg of 5% imiquimod cream daily to prepare a psoriasis mouse model. All groups were administered simultaneously, with dosing twice daily, and the grouping and dosing regimen are detailed in Table 1. The treatment was continued for 6 days. On the 7th day, the skin lesions of the mice were photographed and recorded, after which the mice were euthanized and their back skin was taken for further use.
Histomorphological observation: Starting from the first day of modeling, the degree of erythema, scales, and inflammatory infiltration thickening on the back of mice were scored daily according to the PASI scoring criteria. The PAIS scoring criteria were as follows: 0-none; 1-mild; 2-moderate; 3-severe cases; 4-extremely severe. The more severe the degree of skin damage, the higher the score. The three points were summed to obtain the total PASI score. The average score of each group of mice were then plotted to create a trend line to observe the changes in skin lesions of each group of mice. Digital photography was used to record the skin lesions on the back of the mice in each group on the 7th day for observation and comparison.

[3] = system: Psoriasis in Mice Induced by Imiquimod; test: Histopathological examination (HE staining, epidermal thickness) of back skin of mice with imiquimod-induced psoriasis; format: in vivo, male Balb/c mice; settings: day 7, HE staining, compared with the model group
Description: 110 male Balb/c mice (8-10 weeks, 20-25 g each) were anesthetized by intraperitoneal injection of 10% chloral hydrate, and approximately 2 cm×4 cm of back hair was shaved off. […] On the 7th day, the skin lesions of the mice were photographed and recorded, after which the mice were euthanized and their back skin was taken for further use.
Histopathological examination: On the 7th day of modeling, the mice were euthanized, and the back skin of each group of mice was cut and fixed in 4% paraformaldehyde for 24 hours, embedded in paraffin, and sliced into 4 μm sections. HE staining, sealing, and observation of histopathological changes under microscope were performed, and the epidermal thickness was measured using the scale function of the cellSens standard.

[4] = high-dose 6 mg/kg·d by gavage, after 6 days, compared with high-dose tropic acid, P<0.05

solubility in methanol ([1]; methanol) | solubility in water ([1]; water) | Structure (SMILES) | degree of inflammatory infiltration and thickening of the skin [2, 4] | degree of scale reduction [2, 4] | skin erythema score, high-dose [2, 4] | skin lesion scores (overall score), high-dose ([2]; high-dose 6 mg/kg·d by gavage) | skin erythema score, low-dose ([2]; after 6 days) | skin lesion scores (overall score), low-dose ([2]; P<0.05) | therapeutic effect on back skin injury induced by imiquimod [2] | therapeutic effects compared with tropic acid [2] | incomplete skin keratinization [3] | thickness of the stratum spinosum ([3]; positive drug = dexamethasone 5 mg/kg·d by gavage)
easily soluble | easily soluble | O=C(O)C(CO)c1ccc(O)c(O)c1 (stereo not drawn) [compound III, 3,4-dihydroxy-α-(hydroxymethyl)phenylacetic acid] | significant decrease | superior | significantly reduced | superior | significantly reduced | superior | best therapeutic effect | more significant therapeutic effects than tropic acid | – | –
– | – | O=C(O)C(CO)c1cc(O)c(O)c(O)c1 (stereo not drawn) [compound IV, 3,4,5-trihydroxy-α-(hydroxymethyl)phenylacetic acid] | significant decrease | superior | – | superior | significantly reduced | superior | best therapeutic effect | more significant therapeutic effects than tropic acid | – | –
– | – | C[C@@H]1C[C@H]2[C@@H]3CCC4=CC(=O)C=C[C@]4(C)[C@@]3(F)[C@@H](O)C[C@]2(C)[C@@]1(O)C(=O)CO [positive drug, dexamethasone] | – | – | – | – | – | – | – | – | significantly improvements | significantly reduced
